Test results taken from US11725037B2, “Peptide dual agonists of GIPR and GLP2R” (University of Copenhagen, priority 2017, dated 2023).
Ends that are not written are not given here.

Legend:
[1] = molecular target: T1, human GIP receptor (Homo sapiens, UniProt P48546); assay: cAMP accumulation assay (HitHunter cAMP XS) in transiently transfected COS-7 cells expressing the human GIP receptor; format: cell-based; settings: for Emax at 10 µM: COS-7, read-out: Emax (10 μM), GIP receptor; for fold (fold change of native GIP), GIP receptor: EC50 relative to native GIP; for EC50: logEC50, GIP receptor, log value, cAMP, COS-7
T1 construct: host or cells: COS-7 (transient, calcium phosphate; pCMV-Script vector)
T1 sequence (P48546 22-466): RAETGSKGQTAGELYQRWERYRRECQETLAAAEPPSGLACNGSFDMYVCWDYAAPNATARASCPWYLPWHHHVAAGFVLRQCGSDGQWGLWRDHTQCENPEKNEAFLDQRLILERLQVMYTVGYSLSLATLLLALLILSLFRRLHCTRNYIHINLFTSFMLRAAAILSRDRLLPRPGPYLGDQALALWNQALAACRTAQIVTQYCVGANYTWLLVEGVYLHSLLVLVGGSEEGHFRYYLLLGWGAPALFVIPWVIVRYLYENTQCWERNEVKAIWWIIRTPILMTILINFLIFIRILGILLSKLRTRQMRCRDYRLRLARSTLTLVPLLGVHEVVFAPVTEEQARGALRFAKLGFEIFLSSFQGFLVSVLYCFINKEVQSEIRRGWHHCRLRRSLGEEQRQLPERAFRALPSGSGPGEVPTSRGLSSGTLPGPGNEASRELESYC
Description: (§1) The day after, the cells were washed twice with Hepes buffered saline (HBS) buffer and incubated with HBS and 1 mM 3-isobutyl-1-methylxanthine (IBMX) for 30 min at 37° C. Ligands were added and incubated for 30 min at 37° C. The HitHunter™ cAMP XS assay (DiscoveRx) was carried out according to the manufacturer's instructions.

[2] = molecular target: T2, human GLP-2 receptor (Homo sapiens, UniProt O95838); assay: cAMP accumulation assay (HitHunter cAMP XS) in transiently transfected COS-7 cells expressing the human GLP-2 receptor; format: cell-based; settings: for Emax at 10 µM: COS-7, read-out: Emax (10 μM), GLP-2 receptor; for fold (fold change of native GLP-2), GLP-2 receptor: EC50 relative to native GLP-2; for EC50: cAMP, COS-7
T2 construct: host or cells: COS-7 (transient, calcium phosphate; pCMV-Script vector)
T2 sequence (O95838 1-553): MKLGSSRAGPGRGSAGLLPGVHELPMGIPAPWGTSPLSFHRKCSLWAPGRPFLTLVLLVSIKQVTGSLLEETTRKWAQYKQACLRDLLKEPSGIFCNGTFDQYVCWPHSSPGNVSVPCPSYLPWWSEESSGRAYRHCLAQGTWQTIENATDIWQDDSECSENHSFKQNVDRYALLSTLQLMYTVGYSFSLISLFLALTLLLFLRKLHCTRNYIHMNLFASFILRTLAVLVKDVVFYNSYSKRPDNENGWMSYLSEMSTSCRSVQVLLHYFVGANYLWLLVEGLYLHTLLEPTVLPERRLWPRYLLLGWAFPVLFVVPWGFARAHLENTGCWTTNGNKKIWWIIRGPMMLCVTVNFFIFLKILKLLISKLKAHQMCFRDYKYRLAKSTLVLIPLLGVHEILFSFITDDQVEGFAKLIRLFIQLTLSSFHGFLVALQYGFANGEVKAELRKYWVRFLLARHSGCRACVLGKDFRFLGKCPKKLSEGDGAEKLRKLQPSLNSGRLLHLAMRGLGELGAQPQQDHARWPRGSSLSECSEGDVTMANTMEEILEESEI
Description: as §1

[3] = logEC50, GLP-2 receptor, Table 2

Compound	Emax at 10 µM [1] [%]	fold (fold change of native GIP), GIP receptor ([1]; Table 2) [fold]	Emax at 10 µM [2] [%]	fold (fold change of native GLP-2), GLP-2 receptor ([2]; Table 2) [fold]	EC50 [2, 3] [nM]	EC50 ([1]; Table 2) [nM]	EC50 ([2]; EC50(nM), GLP-2 receptor, Table 2) [nM]	fold (fold change of native GIP), GIP receptor ([1]; Table 1) [fold]	EC50 ([1]; Table 1) [nM]	fold (fold change of native GLP-2), GLP-2 receptor ([2]; Table 1) [fold]	EC50 ([2]; logEC50, GLP-2 receptor, Table 1) [nM]
CCCCCCCCCCCC(=O)NCCCC[C@H](NC(=O)[C@@H](NC(=O)[C@H](CCC(N)=O)NC(=O)[C@@H](NC(=O)[C@H](CC(C)C)NC(=O)[C@H](Cc1c[nH]c2ccccc12)NC(=O)[C@H](CC(N)=O)NC(=O)[C@@H](NC(=O)[C@H](Cc1ccccc1)NC(=O)[C@H](CC(=O)O)NC(=O)[C@H](CCCNC(=N)N)NC(=O)[C@H](C)NC(=O)[C@H](C)NC(=O)[C@H](CC(C)C)NC(=O)[C@H](CC(N)=O)NC(=O)[C@H](CC(=O)O)NC(=O)[C@H](CC(C)C)NC(=O)[C@@H](NC(=O)[C@@H](NC(=O)[C@H](CO)NC(=O)[C@H](Cc1ccc(O)cc1)NC(=O)[C@H](CC(=O)O)NC(=O)[C@H](CO)NC(=O)[C@@H](NC(=O)[C@H](Cc1ccccc1)NC(=O)[C@@H](NC(=O)CNC(=O)[C@H](CC(=O)O)NC(=O)[C@H](C)NC(=O)[C@@H](N)Cc1c[nH]cn1)[C@@H](C)O)[C@@H](C)CC)[C@@H](C)O)[C@@H](C)CC)[C@@H](C)CC)[C@@H](C)CC)[C@@H](C)O)C(=O)N[C@H](C(=O)N[C@H](C(=O)N[C@@H](CCCCN)C(=O)O)[C@@H](C)O)[C@@H](C)CC [Co-agonist 30]	100	7.1	73	30	36.3	–	–	–	–	–	–
CCCCCCCCCCCCCCCC(=O)NCCCC[C@H](NC(=O)[C@@H](NC(=O)[C@H](CCC(N)=O)NC(=O)[C@@H](NC(=O)[C@H](CC(C)C)NC(=O)[C@H](Cc1c[nH]c2ccccc12)NC(=O)[C@H](CC(N)=O)NC(=O)[C@@H](NC(=O)[C@H](Cc1ccccc1)NC(=O)[C@H](CC(=O)O)NC(=O)[C@H](CCCNC(=N)N)NC(=O)[C@H](C)NC(=O)[C@H](C)NC(=O)[C@H](CC(C)C)NC(=O)[C@H](CC(N)=O)NC(=O)[C@H](CC(=O)O)NC(=O)[C@H](CC(C)C)NC(=O)[C@@H](NC(=O)[C@@H](NC(=O)[C@H](CO)NC(=O)[C@H](Cc1ccc(O)cc1)NC(=O)[C@H](CC(=O)O)NC(=O)[C@H](CO)NC(=O)[C@@H](NC(=O)[C@H](Cc1ccccc1)NC(=O)[C@@H](NC(=O)CNC(=O)[C@H](CC(=O)O)NC(=O)[C@H](C)NC(=O)[C@@H](N)Cc1c[nH]cn1)[C@@H](C)O)[C@@H](C)CC)[C@@H](C)O)[C@@H](C)CC)[C@@H](C)CC)[C@@H](C)CC)[C@@H](C)O)C(=O)N[C@H](C(=O)N[C@H](C(=O)N[C@@H](CCCCN)C(=O)O)[C@@H](C)O)[C@@H](C)CC [Co-agonist 31]	91	19	91	89	–	–	–	–	–	–	–
CCCCCCCCCCCC(=O)NCCCC[C@H](NC(=O)[C@@H](NC(=O)[C@@H](NC(=O)[C@H](CCCCN)NC(=O)[C@@H](NC(=O)[C@H](CCC(N)=O)NC(=O)[C@@H](NC(=O)[C@H](CC(C)C)NC(=O)[C@H](Cc1c[nH]c2ccccc12)NC(=O)[C@H](CC(N)=O)NC(=O)[C@@H](NC(=O)[C@H](Cc1ccccc1)NC(=O)[C@H](CC(=O)O)NC(=O)[C@H](CCCNC(=N)N)NC(=O)[C@H](C)NC(=O)[C@H](C)NC(=O)[C@H](CC(C)C)NC(=O)[C@H](CC(N)=O)NC(=O)[C@H](CC(=O)O)NC(=O)[C@H](CC(C)C)NC(=O)[C@@H](NC(=O)[C@@H](NC(=O)[C@H](CO)NC(=O)[C@H](Cc1ccc(O)cc1)NC(=O)[C@H](CC(=O)O)NC(=O)[C@H](CO)NC(=O)[C@@H](NC(=O)[C@H](Cc1ccccc1)NC(=O)[C@@H](NC(=O)CNC(=O)[C@H](CC(=O)O)NC(=O)[C@H](C)NC(=O)[C@@H](N)Cc1c[nH]cn1)[C@@H](C)O)[C@@H](C)CC)[C@@H](C)O)[C@@H](C)CC)[C@@H](C)CC)[C@@H](C)CC)[C@@H](C)O)[C@@H](C)CC)[C@@H](C)O)C(=O)O [Co-agonist 32]	100	1.7	91	5.1	–	0.155	6.2	–	–	–	–
CCCCCCCCCCCCCCCC(=O)NCCCC[C@H](NC(=O)[C@@H](NC(=O)[C@@H](NC(=O)[C@H](CCCCN)NC(=O)[C@@H](NC(=O)[C@H](CCC(N)=O)NC(=O)[C@@H](NC(=O)[C@H](CC(C)C)NC(=O)[C@H](Cc1c[nH]c2ccccc12)NC(=O)[C@H](CC(N)=O)NC(=O)[C@@H](NC(=O)[C@H](Cc1ccccc1)NC(=O)[C@H](CC(=O)O)NC(=O)[C@H](CCCNC(=N)N)NC(=O)[C@H](C)NC(=O)[C@H](C)NC(=O)[C@H](CC(C)C)NC(=O)[C@H](CC(N)=O)NC(=O)[C@H](CC(=O)O)NC(=O)[C@H](CC(C)C)NC(=O)[C@@H](NC(=O)[C@@H](NC(=O)[C@H](CO)NC(=O)[C@H](Cc1ccc(O)cc1)NC(=O)[C@H](CC(=O)O)NC(=O)[C@H](CO)NC(=O)[C@@H](NC(=O)[C@H](Cc1ccccc1)NC(=O)[C@@H](NC(=O)CNC(=O)[C@H](CC(=O)O)NC(=O)[C@H](C)NC(=O)[C@@H](N)Cc1c[nH]cn1)[C@@H](C)O)[C@@H](C)CC)[C@@H](C)O)[C@@H](C)CC)[C@@H](C)CC)[C@@H](C)CC)[C@@H](C)O)[C@@H](C)CC)[C@@H](C)O)C(=O)O [Co-agonist 33]	100	3.6	82	11	12.9	0.316	–	–	–	–	–
CCCCCCCCCCCC(=O)NCCCC[C@H](NC(=O)CNC(=O)[C@H](CCCCN)NC(=O)[C@@H](NC(=O)[C@H](CCC(N)=O)NC(=O)[C@@H](NC(=O)[C@H](CC(C)C)NC(=O)[C@H](Cc1c[nH]c2ccccc12)NC(=O)[C@H](CC(N)=O)NC(=O)[C@@H](NC(=O)[C@H](Cc1ccccc1)NC(=O)[C@H](CC(=O)O)NC(=O)[C@H](CCCNC(=N)N)NC(=O)[C@H](C)NC(=O)[C@H](C)NC(=O)[C@H](CC(C)C)NC(=O)[C@H](CC(N)=O)NC(=O)[C@H](CC(=O)O)NC(=O)[C@H](CC(C)C)NC(=O)[C@@H](NC(=O)[C@@H](NC(=O)[C@H](CO)NC(=O)[C@H](Cc1ccc(O)cc1)NC(=O)[C@H](CC(=O)O)NC(=O)[C@H](CO)NC(=O)[C@@H](NC(=O)[C@H](Cc1ccccc1)NC(=O)[C@@H](NC(=O)CNC(=O)[C@H](CC(=O)O)NC(=O)[C@H](C)NC(=O)[C@@H](N)Cc1c[nH]cn1)[C@@H](C)O)[C@@H](C)CC)[C@@H](C)O)[C@@H](C)CC)[C@@H](C)CC)[C@@H](C)CC)[C@@H](C)O)C(=O)N[C@@H](CCCCN)C(=O)O [Co-agonist 35]	99	5.4	68	1.9	2.34	–	–	–	–	–	–
CCCCCCCCCCCCCCCC(=O)NCCCC[C@H](NC(=O)CNC(=O)[C@H](CCCCN)NC(=O)[C@@H](NC(=O)[C@H](CCC(N)=O)NC(=O)[C@@H](NC(=O)[C@H](CC(C)C)NC(=O)[C@H](Cc1c[nH]c2ccccc12)NC(=O)[C@H](CC(N)=O)NC(=O)[C@@H](NC(=O)[C@H](Cc1ccccc1)NC(=O)[C@H](CC(=O)O)NC(=O)[C@H](CCCNC(=N)N)NC(=O)[C@H](C)NC(=O)[C@H](C)NC(=O)[C@H](CC(C)C)NC(=O)[C@H](CC(N)=O)NC(=O)[C@H](CC(=O)O)NC(=O)[C@H](CC(C)C)NC(=O)[C@@H](NC(=O)[C@@H](NC(=O)[C@H](CO)NC(=O)[C@H](Cc1ccc(O)cc1)NC(=O)[C@H](CC(=O)O)NC(=O)[C@H](CO)NC(=O)[C@@H](NC(=O)[C@H](Cc1ccccc1)NC(=O)[C@@H](NC(=O)CNC(=O)[C@H](CC(=O)O)NC(=O)[C@H](C)NC(=O)[C@@H](N)Cc1c[nH]cn1)[C@@H](C)O)[C@@H](C)CC)[C@@H](C)O)[C@@H](C)CC)[C@@H](C)CC)[C@@H](C)CC)[C@@H](C)O)C(=O)N[C@@H](CCCCN)C(=O)O [Co-agonist 36]	100	8.9	71	17	20	–	–	–	–	–	–
HADGTFIDDYSTILDNLAARDFINWLIQTKITD [Co-agonist 14]	94	–	90	–	–	–	–	27	2.34	9.2	10.7
